Test results reported in patent publication US20240116985A1, “STAPLED PEPTIDES AND METHODS THEREOF” (priority 2020, published 2024).
In brackets after ≈: the same amount, converted by molar mass. Several values for one entry are separate records, joined by “and”; a condition that tells them apart may be missing. Equal entries are not always repeated. Where two headings read alike, the source gives them in different places. Each block holds one molecule with its values, some of them ahead of it.

What was measured:
[1] = molecular target: T1, full-length beta-Catenin (Uniprot ID P35222) (Homo sapiens, UniProt P35222); test: Fluorescence polarization IC50 (beta-catenin / 5FAM-TCF4 10-53 competition); format: binding
T1 construct: 10 nM full-length beta-Catenin (Uniprot ID P35222)
T1 sequence (P35222 1-781): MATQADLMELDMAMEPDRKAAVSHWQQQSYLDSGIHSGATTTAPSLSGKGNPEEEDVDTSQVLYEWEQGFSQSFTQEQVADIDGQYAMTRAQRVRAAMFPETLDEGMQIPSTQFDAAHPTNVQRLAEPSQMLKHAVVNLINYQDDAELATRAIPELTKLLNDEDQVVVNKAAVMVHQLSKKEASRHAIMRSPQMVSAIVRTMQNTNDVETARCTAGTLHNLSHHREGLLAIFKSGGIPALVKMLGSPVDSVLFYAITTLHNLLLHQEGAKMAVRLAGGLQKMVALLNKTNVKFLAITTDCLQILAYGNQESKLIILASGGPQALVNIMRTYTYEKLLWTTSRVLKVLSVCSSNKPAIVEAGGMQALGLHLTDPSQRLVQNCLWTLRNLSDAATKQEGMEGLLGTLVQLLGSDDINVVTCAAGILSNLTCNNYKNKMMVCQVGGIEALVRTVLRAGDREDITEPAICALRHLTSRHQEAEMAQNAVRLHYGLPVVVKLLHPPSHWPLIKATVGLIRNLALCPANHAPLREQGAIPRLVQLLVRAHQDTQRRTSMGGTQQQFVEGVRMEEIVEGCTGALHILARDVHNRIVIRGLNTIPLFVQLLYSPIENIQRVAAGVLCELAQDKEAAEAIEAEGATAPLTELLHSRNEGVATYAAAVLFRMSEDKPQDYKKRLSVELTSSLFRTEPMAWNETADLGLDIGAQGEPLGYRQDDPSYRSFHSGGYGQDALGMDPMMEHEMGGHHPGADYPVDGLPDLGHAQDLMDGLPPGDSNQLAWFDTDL

CHI Log D procedure = format: physicochemical; settings: pH 7.4, CHI Log D
Solubility in PBS = format: physicochemical
Method in brief: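 PBS sample ultracentrifuged; supernatant run on HPLC vs. 50 μM peptide in DMSO standard. Solubility = (PBS peak area / DMSO peak area) × 50 uM.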

[2] = molecular target: T2, beta-catenin/TCF4 engagement (Homo sapiens, UniProt P35222); test: Nano-BRET target engagement assay (B-cat-Halo & TCF4-Luc in HEK293 cells); format: cell-based; settings: for BRET % Inhibition: replicates
T2 construct: expressed in transfected cells; host or cells: HEK293
T2 sequence (P35222 1-781): T1 sequence (P35222 1-781)

[3] = test system: TCF/LEF luciferase Reporter in DLD1 cells; test: TCF reporter assay (DLD1 TCF/LEF luciferase reporter, Bright-Glo); format: cell-based
Method in brief: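 Readouts: Bright-Glo luciferase for reporter signal and CellTiter-Glo for cell viability, with absolute IC50 derived. The reporter clone came from lentiviral TCF/LEF-luciferase transduction of DLD1 cells, seeded 5000 cells/well in RPMI with 4% FBS and exposed overnight to serially diluted compounds.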

COLO320DM cells = format: cell-based; settings: read-out: COLO320DM Proliferation Abs IC50
Method in brief: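 COLO320DM cells at 250 cells/well in RPMI-1640 + 4% HI FBS, dosed after 18–22 h with a 7-point […] 1/2 dilution series from 20 uM down to 313 nM.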

in vitro = format: cell-based; settings: human, HEK293 cells, CTG (CellTiter Glo) Relative to Media
Method: (§1) On Day 3, fluorescence was read with Nano-BRET substrates. Remove plates from incubator to allow to reach to RT (30 min). Also equilibrate CTG reagent to Rm Temp. Dilute Nano-BRET substrate 1:100 in Assay media. Add 25 uL of diluted substrate to each well and shake for 30 seconds. Read on ClarioSTAR or GloMAX right away (within 10 min). Donor emission @ 460 nm. Acceptor emission @ 618 nm. Use the same plate to measure cell viability (Cell Titer-Glo-2.0 (CTG) Viability test). After reading BRET signal, add CTG reagent to each well at 1:2 ratio and shake on orbital shaker for 2 min. Incubate at Rm Temp for 10-30 min. Read luminescence on ClarioSTAR or GloMAX. Analysis was performed using Prism. Non-linear regression. Log (inhibitor) vs response—variable slope (four parameters). For CTG data linear values (not logarithmic).

HEK293 cells = test: in vitro; format: cell-based; settings: human, 1.25 µM
Method: as §1

[4] = fluorescence polarization, beta-catenin, read-out: FP EC50
[5] = read-out: DLD1 4% Abs IC50, DLD1 4%
[6] = plate row B = 20 uM, integration 0.3 s, reading 1

Structure (SMILES): CC(=O)N1CCC[C@]12CC=CCCCC1(CCCC=CCCCOC(=O)N3CC[C@@](C(=O)N[C@@H](Cc4ccsc4)C(=O)N[C@@H](Cc4csc5ccccc45)C(=O)N[C@@H](CCC(N)=O)C(N)=O)(C3)NC(=O)[C@H](CC(C)C)NC(=O)[C@H](Cc3ccccc3)NC(=O)[C@H](C)NC(=O)[C@H](C)NC(=O)[C@H](CC(=O)O)NC(=O)[C@H](CC(=O)O)NC1=O)NC(=O)[C@H](CC(C)(C)C)NC(=O)[C@H](CC(=O)O)NC2=O (stereo partly drawn) [I-801, Ac-PL3-Asp-Npg-B5-Asp-Asp-Ala-Ala-Phe-Leu-PyrS2-3Thi-BztA-Gln-NH2]
IC50 [1, 4]: 0.006 µM
IC50 ([1]; read-out: beta-Catenin FP IC50): 0.007 µM
chromatographic logD (CHI Log D procedure): 2.21
Solubility (Solubility in PBS): 50 µM (≈ 95.9 µg/mL)
IC50 ([2]; read-out: NanoBRET Abs IC50): 5.8 µM
IC50 ([2]; read-out: NanoBRET IC50): 6.8 µM
IC50 [3, 5]: 4.3 µM
IC50 (COLO320DM cells): > 20 µM

chromatographic logD (CHI Log D procedure): 2.32
solubility at 15 min (Solubility in PBS; Solubility (uM)): 45 µM (≈ 86.3 µg/mL)
BRET % Inhibition ([2]; 0.625 uM): −56.5% and −6.9% and 8.3%
BRET % Inhibition ([2]; 1.25 uM): −24.8% and −1.1% and −4.0%
BRET % Inhibition ([2]; 2.5 uM): −21.3% and 26.5% and −11.7%
BRET % Inhibition ([2]; 5 uM): −16.9% and −28.4% and −18.6%
BRET % Inhibition ([2]; 10 uM): −21.7% and −21.9% and 1.7%
BRET % Inhibition ([2]; 20 uM): −36.7% and −0.3% and −19.5%
inhibition at 10 µM ([2]; HEK293, @ 10 uM, read-out: NanoBRET % inh @ 10 uM): 4.3%
BRET Acceptor 600 LP raw reading [2, 6]: 860 and 660 and 640
BRET Donor 450 BP raw reading [2, 6]: 58480 and 55870 and 47990
BRET Acceptor 600 LP raw reading ([2]; plate row D = 5 uM): 510 and 420 and 630
BRET Donor 450 BP raw reading ([2]; plate row D = 5 uM): 38850 and 29900 and 47500
BRET Donor 450 BP raw reading ([2]; plate row E = 2.5 uM): 34130 and 22720 and 40100
BRET Acceptor 600 LP raw reading ([2]; plate row G = 0.625 uM): 410 and 440 and 530
BRET Donor 450 BP raw reading ([2]; plate row G = 0.625 uM): 25180 and 35670 and 47630
IC50 ([2]; read-out: NanoBRET IC50): > 20 µM
CTG (CellTiter Glo) Relative to Media (HEK293 cells): 101
Structure (SMILES): CC(=O)N1CCC[C@]12CC=CCCCC1(CCCC=CCCCOC(=O)N3CC[C@@](C(=O)N[C@@H](Cc4ccsc4)C(=O)N[C@@H](Cc4csc5ccccc45)C(=O)N[C@@H](CCC(N)=O)C(N)=O)(C3)NC(=O)[C@H](CC(N)=O)NC(=O)[C@H](CC(=O)O)NC(=O)[C@H](C)NC(=O)[C@H](C)NC(=O)[C@H](CC(=O)O)NC(=O)[C@H](CC(=O)O)NC1=O)NC(=O)[C@H](CC(C)(C)C)NC(=O)[C@H](Cc1ccccc1)NC2=O (stereo partly drawn) [I-797, Ac-PL3-Phe-Npg-B5-Asp-Asp-Ala-Ala-Asp-Asn-PyrS2-3Thi-BztA-Gln-NH2]
viability at 0.625 µM (in vitro): 104%
viability at 1.25 µM (in vitro): 104%
viability at 2.5 µM (in vitro): 103%
viability at 5 µM (in vitro): 102%
viability at 10 µM (in vitro): 100%
viability at 20 µM (in vitro): 92%

Structure (SMILES): CC(=O)N1CCC[C@]12CC=CCCCC1(CCCC=CCCCOC(=O)N3CC[C@@](C(=O)N[C@@H](Cc4ccccc4Cl)C(=O)N[C@@H](Cc4csc5ccccc45)C(=O)N[C@@H](CCO)C(N)=O)(C3)NC(=O)[C@H](CCO)NC(=O)[C@H](Cc3ccccc3)NC(=O)[C@H](C)NC(=O)[C@H](C)NC(=O)[C@H](CN(CC(=O)O)CC(F)(F)F)NC(=O)[C@H](CC(=O)O)NC1=O)NC(=O)[C@H](CC(C)(C)C)NC(=O)[C@H](CC(=O)O)NC2=O (stereo partly drawn) [I-993, Ac-PL3-Asp-Npg-B5-Asp-TfeGA-Ala-Ala-Phe-Hse-PyrS2-2C1F-BztA-Hse-NH2]
IC50 [1, 4]: 0.012 µM
IC50 ([1]; read-out: beta-Catenin FP IC50): 0.018 µM
chromatographic logD (CHI Log D procedure): 2.33
Solubility (Solubility in PBS; Solubility (uM)): 41 µM (≈ 82.7 µg/mL)
IC50 ([2]; Peptide + ST-Protein (SAINT-Protein lipid), read-out: Nano-BRET Abs IC50): 0.9 µM
IC50 ([2]; Peptide only, read-out: Nano-BRET Abs IC50): 7 µM
IC50 ([2]; absolute IC50, read-out: NanoBRET Abs IC50): 4 µM
IC50 ([2]; read-out: NanoBRET Abs IC50): 4.9 µM
IC50 ([3]; Peptide + ST-Protein (SAINT-Protein lipid), read-out: TCF Reporter Assay Abs IC50): 0.2 µM
IC50 ([3]; Peptide only, read-out: TCF Reporter Assay Abs IC50): 5 µM
IC50 ([3]; absolute IC50, read-out: DLD1 reporter assay Abs IC50): 4.4 µM
IC50 [3, 5]: 1.8 µM
IC50 (COLO320DM cells): 3.6 µM
